Literature values as cited in US6403864B1, “Precursor polypeptide of a plant growth factor, a gene encoding a precursor polypeptide of a plant growth factor and a method for promotion of plant growth” (Nagoya University, priority 1999, dated 2002).
Where no end group is shown, it is not given here. [ ]: non-standard residue; d: D form. sY = N[C@@H](Cc1ccc(OS(=O)(=O)O)cc1)C(=O)O

Test system: plant cell
Conditions: compared with PSK-α

[sY]I[sY]T [PSK-β]
Cell proliferation activity relative to PSK-α: less than one-tenth
